Data on 9 compounds can be found in patent US20240148821A1, “PHARMACEUTICAL USE OF CYCLIC PEPTIDE COMPOUND” (CHUGAI SEIYAKU KABUSHIKI KAISHA, priority 2021, published 2024).

SMILES strings stand for the structures. Numbered stars: 1 amine (or outer) side, 2 acyl side, 3 side chain; on linkers, the order of the positions; unused ones are H or OH. Bridge positions count the residues as written; N and C are the ends. Square brackets hold non-standard residues; d marks the D form. Peptide text beside a SMILES is read from it. * marks the point of attachment. hPhe(3-Cl-4-CF3) = N[C@@H](CCc1ccc(C(F)(F)F)c(Cl)c1)C(=O)O; NMePhe(4-CF3) = CN[C@@H](Cc1ccc(C(F)(F)F)cc1)C(=O)O; hPhe(4-CF3) = N[C@@H](CCc1ccc(C(F)(F)F)cc1)C(=O)O; NMePhe(4-Cl) = CN[C@@H](Cc1ccc(Cl)cc1)C(=O)O; NMePhe(4-Me) = CN[C@@H](Cc1ccc(C)cc1)C(=O)O; NMeNle(6-CHF2) = CN[C@@H](CCCCC(F)F)C(=O)O; X77 = O=C(CN(CCN1CCC(F)(F)CC1)[*:1])[*:2]; Phe(3-I) = N[C@@H](Cc1cccc(I)c1)C(=O)O; Ala(cPent) = N[C@@H](CC1CCCC1)C(=O)O; Phe(2-F) = N[C@@H](Cc1ccccc1F)C(=O)O; NMe4Pal = CN[C@@H](Cc1ccncc1)C(=O)O; NMeCha = CN[C@@H](CC1CCCCC1)C(=O)O; NMeChg = CN[C@H](C(=O)O)C1CCCCC1; NMeI = CC[C@H](C)[C@H](NC)C(=O)O; NMeD = CN[C@@H](CC(=O)O)C(=O)O; NMeL = CN[C@@H](CC(C)C)C(=O)O; NMeV = CN[C@H](C(=O)O)C(C)C; d(β3hA) = C[C@@H](N)CC(=O)O; NMeS = CN[C@@H](CO)C(=O)O; NMeA = CN[C@@H](C)C(=O)O; NMeAib = CNC(C)(C)C(=O)O; Piperidide = C1CCN(*)CC1; Ac5c = NC1(C(=O)O)CCCC1; Aze = O=C(O)[C@@H]1CCN1; Aib = CC(C)(N)C(=O)O; Sar = CNCC(=O)O Some results are limits rather than exact numbers.

The experiment concerns Human pancreatic cancer cell line AsPC-1 (G12D mutation Kras). Briefly: AsPC-1 cell growth inhibition (AsPC-1 CGI). It is filed as cell-based. The conditions noted are these: read-out: AsPC-1 cell growth inhibition, 50% growth inhibitory concentration (IC50 value); 96 hours, CellTiter-Glo, values classified in ranges.
Protocol: Test compounds were serially dilated with dimethyl sulfoxide, and 200 nL was then dispensed to a U-bottom 96-well plate using Labcyte Echo. […] The cell suspension was dispensed to a. plate containing a test compound at 100 μL per well and incubated at 37° C. in a 5% carbon dioxide gas incubator. 96 hours later, 80 μL of CellTiter-Glo (Promega) was added to each well and fluorescence was measured.
With `CC(C)C[C@H]1C(=O)N[C@@H](CC2CCCC2)C(=O)N(C)CC(=O)N(C)CC(=O)N(C)[C@@H](CC2CCCCC2)C(=O)N(C)CC(=O)N[C@@H](CCc2ccc(C(F)(F)F)c(Cl)c2)C(=O)N2CCC[C@H]2C(=O)NC2(CCCC2)C(=O)N(C)[C@@H](C(C)C)C(=O)N(C)[C@H](C(=O)N2CCCCC2)CC(=O)N1C` [Compound 627] ([NMeL][Ala(cPent)][Sar][Sar][NMeCha][Sar][hPhe(3-Cl-4-CF3)]P[Ac5c][NMeV][NMeD]-Piperidide; lactam N-11), the IC50 was more than 500 nM. Then `CC[C@H](C)[C@@H]1NC(=O)[C@H](CC(C)C)N(C)C(=O)C[C@@H](C(=O)N2CCCCC2)N(C)C(=O)[C@H]([C@@H](C)CC)N(C)C(=O)C2(CCCC2)NC(=O)[C@@H]2CCCN2C(=O)[C@H](CCc2ccc(C(F)(F)F)c(Cl)c2)NC(=O)CN(C)C(=O)[C@H](Cc2ccc(C(F)(F)F)cc2)N(C)C(=O)[C@@H]2CCN2C(=O)[C@H](C)N(C)C1=O` [Compound 630] ([NMeL]I[NMeA][Aze][NMePhe(4-CF3)][Sar][hPhe(3-Cl-4-CF3)]P[Ac5c][NMeI][NMeD]-Piperidide; lactam N-11), with not above 20 nM. To `CC[C@H](C)[C@@H]1NC(=O)[C@H](CC(C)C)N(C)C(=O)C[C@@H](C)NC(=O)[C@H](C(C)C)N(C)C(=O)C2(CCCC2)NC(=O)[C@@H]2CCCN2C(=O)[C@H](CCc2ccc(C(F)(F)F)c(Cl)c2)NC(=O)CN(C)C(=O)[C@H](CC2CCCCC2)N(C)C(=O)CN(C)C(=O)CN(CCN2CCC(F)(F)CC2)C1=O` [Compound 635] (cyclo([Ac5c][NMeV][d(β3hA)][NMeL]I[X77][Sar][NMeCha][Sar][hPhe(3-Cl-4-CF3)]P)) belongs more than 500 nM; to `CC[C@H](C)[C@@H]1NC(=O)[C@H](COC)N(C)C(=O)C[C@@H](C(=O)N2CCCCC2)N(C)C(=O)[C@H](C(C)C)N(C)C(=O)C2(CCCC2)NC(=O)[C@@H]2CCCN2C(=O)[C@H](CCc2ccc(C(F)(F)F)c(Cl)c2)NC(=O)CN(C)C(=O)[C@H](CC2CCCCC2)N(C)C(=O)[C@@H]2CCN2C(=O)[C@H](C)N(C)C1=O` [Compound 636] ([NMeS](Me)I[NMeA][Aze][NMeCha][Sar][hPhe(3-Cl-4-CF3)]P[Ac5c][NMeV][NMeD]-Piperidide; lactam N-11), more than 500 nM; to `CC[C@H](C)[C@@H]1NC(=O)[C@H](CC(C)C)N(C)C(=O)C[C@@H](C(=O)N2CCCCC2)N(C)C(=O)[C@H](CC(C)C)NC(=O)C(C)(C)N(C)C(=O)[C@H](Cc2ccccc2F)NC(=O)[C@H](Cc2cccc(I)c2)NC(=O)CN(C)C(=O)[C@H](Cc2ccc(C)cc2)N(C)C(=O)[C@@H]2CCN2C(=O)CN(C)C1=O` [Compound 638] ([NMeL]I[Sar][Aze][NMePhe(4-Me)][Sar][Phe(3-I)][Phe(2-F)][NMeAib]L[NMeD]-Piperidide; lactam N-11), more than 500 nM.

Turning to `CC[C@H](C)[C@@H]1NC(=O)[C@H](CC(C)C)N(C)C(=O)C[C@@H](C)NC(=O)[C@H](C(C)C)N(C)C(=O)C(C)(C)NC(=O)[C@@H]2CCCN2C(=O)[C@H](CCc2ccc(C(F)(F)F)c(Cl)c2)NC(=O)CN(C)C(=O)[C@H](CC2CCCCC2)N(C)C(=O)CN(C)C(=O)CN(C)C1=O` [Compound 641] (cyclo([Aib][NMeV][d(β3hA)][NMeL]I[Sar][Sar][NMeCha][Sar][hPhe(3-Cl-4-CF3)]P)), the IC50 was more than 500 nM. `CC[C@H](C)[C@@H]1NC(=O)[C@H](C(C)C)N(C)C(=O)C[C@@H](C)NC(=O)[C@H](CC(C)C)N(C)C(=O)C2(CCCC2)NC(=O)[C@H](CC(C)C)N(C)C(=O)[C@H](CCc2ccc(C(F)(F)F)cc2)NC(=O)CN(C)C(=O)[C@H](Cc2ccc(Cl)cc2)N(C)C(=O)[C@@H]2CCN2C(=O)CN(C)C1=O` [Compound 645] (cyclo([Ac5c][NMeL][d(β3hA)][NMeV]I[Sar][Aze][NMePhe(4-Cl)][Sar][hPhe(4-CF3)][NMeL])): the IC50 was more than 500 nM. Then `CC[C@H](C)[C@@H]1NC(=O)[C@H](CC(C)C)N(C)C(=O)C[C@@H](C(=O)N2CCCCC2)N(C)C(=O)[C@H](CCCCC(F)F)N(C)C(=O)C2(CCCC2)NC(=O)[C@@H]2CCCN2C(=O)[C@H](CCc2ccc(C(F)(F)F)c(Cl)c2)NC(=O)CN(C)C(=O)[C@H](CC2CCCCC2)N(C)C(=O)CN(C)C(=O)CN(C)C1=O` [Compound 653] ([NMeL]I[Sar][Sar][NMeCha][Sar][hPhe(3-Cl-4-CF3)]P[Ac5c][NMeNle(6-CHF2)][NMeD]-Piperidide; lactam N-11), with more than 500 nM.

Regarding `CC[C@H](C)[C@@H]1NC(=O)[C@H](CC(C)C)N(C)C(=O)C[C@@H](C(=O)N2CCCCC2)N(C)C(=O)[C@H](C2CCCCC2)N(C)C(=O)C2(CCCC2)NC(=O)[C@H](Cc2ccncc2)N(C)C(=O)[C@H](CCc2ccc(C(F)(F)F)c(Cl)c2)NC(=O)CN(C)C(=O)[C@H](CC2CCCCC2)N(C)C(=O)[C@@H]2CCN2C(=O)[C@H](C)N(C)C1=O` [Compound 656] ([NMeL]I[NMeA][Aze][NMeCha][Sar][hPhe(3-Cl-4-CF3)][NMe4Pal][Ac5c][NMeChg][NMeD]-Piperidide; lactam N-11), the IC50 is more than 500 nM.
